# Measured values taken from patent publication EP4813992A1, “POLYARYL DERIVATIVE AND USE THEREOF” (Hangzhou HealZen Therapeutics Co., Ltd., priority 2023, dated 2025).
# pIC50: −log10 of the molar value.
# How the values were obtained:
# HPK1 kinase [1] = biological target: T1, HPK1 kinase (Homo sapiens, UniProt Q92918); assay: Lantha screen assay, inhibitory effect on HPK1 kinase; format: biochemical; settings: initial compound concentration 1 µM
# Experimental: The Lantha screen assay is used to evaluate the inhibitory effect of the compounds on HPK1 kinase. • a) Kinase buffer: 50 mM HEPES (pH 7.5), 10 mM MgCl2, 4 mM DTT, 0.01% Tween-20, 0.01% BSA. • b) Compound Preparation: The compound is diluted with DMSO, and the initial detection concentration of the compound is 1 µM and is diluted to the corresponding concentration. • c) Kinase response and termination: A kinase solution is prepared by adding kinase buffer, the kinase solution and the compound are added to the test plate to be incubated at room temperature for 10 minutes. Fluorescein-PKC and ATP are added to the kinase buffer to form a substrate solution, and 5 µl of the substrate solution is added to the test plate to start the reaction to be incubated at room temperature for 90 minutes; then, 10 µl of a mixture of antibody and EDTA is added to terminate the reaction to be incubated at room temperature for 60 minutes. • d) The date is read by Envision instrument to plot a curve with the Log concentration of the inhibitor as the X-axis and the inhibition rate as the Y-axis, and then the formula Y=Bottom + (Top-Bottom)/(1+(IC50/X)^HillSlope) is used to obtain IC50. Table 1 Inhibitory activity the compounds of the invention on HPK1 kinase
# HPK1 kinase [2] = biological target: T1, HPK1 kinase; assay: Activity of degrading HPK1 in Jurkat cells (Western blot, 24 h); format: cell-based; design: endogenous in cells; host or cells: Jurkat; settings: HPK1 protein degradation
# Experimental: The adjusted samples are added to 5*loading buffer, boiled at 100°C for 10 minutes, and then the samples are loaded after the temperature is returned to room temperature. • 4) Detection of samples: Electrophoresis is performed using 10% SDS-PAGE with a sample loading volume of 8 µL/well. After the membrane transfer is completed, the samples are blocked with 5% BSA at room temperature for 1 h. After the residual blocking solution is washed away with TBST, HPK1 and GAPDH antibodies are added for incubation overnight at 4°C. Washing is performed 3 more times with TBST on a shaker, 10 minutes each time. After washing is completed, the secondary antibody is added for incubation at room temperature for 1 hour; then, washing is performed 3 more times with TBST on a shaker, 10 minutes each time; finally, ECL exposure solution is used to develop and image the bands to detect changes in HPK1 protein.
# T1 sequence (Q92918 whole entry): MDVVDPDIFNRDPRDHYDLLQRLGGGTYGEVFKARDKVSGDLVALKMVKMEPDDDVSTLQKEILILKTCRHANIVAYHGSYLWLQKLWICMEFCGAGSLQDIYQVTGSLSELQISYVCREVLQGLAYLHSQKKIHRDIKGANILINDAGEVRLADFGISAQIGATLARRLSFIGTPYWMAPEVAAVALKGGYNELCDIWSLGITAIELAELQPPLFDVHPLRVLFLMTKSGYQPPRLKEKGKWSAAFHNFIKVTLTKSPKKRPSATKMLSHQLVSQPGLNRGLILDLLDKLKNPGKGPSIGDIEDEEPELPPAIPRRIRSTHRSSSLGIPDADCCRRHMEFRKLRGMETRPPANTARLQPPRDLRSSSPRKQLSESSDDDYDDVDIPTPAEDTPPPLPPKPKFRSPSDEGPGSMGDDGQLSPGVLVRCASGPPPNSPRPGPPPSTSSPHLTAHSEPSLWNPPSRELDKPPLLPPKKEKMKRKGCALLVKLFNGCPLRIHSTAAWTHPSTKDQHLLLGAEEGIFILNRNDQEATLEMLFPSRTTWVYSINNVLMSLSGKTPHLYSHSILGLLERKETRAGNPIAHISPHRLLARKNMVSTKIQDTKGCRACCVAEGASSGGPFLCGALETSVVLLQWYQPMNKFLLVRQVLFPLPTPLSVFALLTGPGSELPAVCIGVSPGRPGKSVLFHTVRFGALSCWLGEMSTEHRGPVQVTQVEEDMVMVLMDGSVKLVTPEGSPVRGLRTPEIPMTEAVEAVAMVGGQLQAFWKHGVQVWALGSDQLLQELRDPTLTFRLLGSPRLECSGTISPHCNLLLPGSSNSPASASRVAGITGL
structure (smiles),measurement,setting,value
Cc1cc(-c2cnc3[nH]cc(-n4cc(C#N)cn4)c3n2)cc(C)c1C1=CCN(CC2CN(c3ccc(N4CCC(=O)NC4=O)c(F)c3)C2)CC1 [compound 161],pIC50,HPK1 kinase [1],> 8.00
same,DC50,HPK1 kinase [2]; class symbols,< 10 nM
Cc1cc(N2CC(CN3CC=C(c4c(C)cc(-c5cnc6[nH]cc(-c7ccc(C(=O)N(C)C)cc7)c6c5)cc4C)CC3)C2)ccc1N1CCC(=O)NC1=O [compound 013],pIC50,HPK1 kinase [1],> 8.00
same,DC50,HPK1 kinase [2]; class symbols,< 10 nM
Cc1cc(-c2cnc3[nH]cc(-c4cnco4)c3n2)cc(C)c1C1=CCN(CC2CN(c3ccc(N4CCC(=O)NC4=O)c(F)c3)C2)CC1 [compound 169],pIC50,HPK1 kinase [1],> 8.00
same,DC50,HPK1 kinase [2]; class symbols,< 10 nM
Cc1cc(-c2cnc3[nH]cc(-c4cn(CC(F)(F)F)nn4)c3n2)cc(C)c1C1=CCN(CC2CN(c3ccc(N4CCC(=O)NC4=O)c(F)c3)C2)CC1 [compound 148],pIC50,HPK1 kinase [1],> 8.00
same,DC50,HPK1 kinase [2]; class symbols,< 10 nM
Cc1cc(N2CC(CN3CC=C(c4c(C)cc(-c5cnc6[nH]cc(-c7cnc8ccn(C)c8c7)c6c5)cc4C)CC3)C2)ccc1N1CCC(=O)NC1=O [compound 111],pIC50,HPK1 kinase [1],> 8.00
same,DC50,HPK1 kinase [2]; class symbols,< 10 nM
Cc1cc(-c2cnc3[nH]cc(-c4c(C)noc4C)c3n2)cc(C)c1C1=CCN(CC2CN(c3ccc(N4CCC(=O)NC4=O)c(F)c3)C2)CC1 [compound 155],pIC50,HPK1 kinase [1],> 8.00
same,DC50,HPK1 kinase [2]; class symbols,< 10 nM
CCN1CCC(n2cc(-c3c[nH]c4ncc(-c5cc(C)c(C6=CCN(CC7CN(c8ccc(N9CCC(=O)NC9=O)c(F)c8)C7)CC6)c(C)c5)nc34)cn2)CC1 [compound 108],pIC50,HPK1 kinase [1],> 8.00
same,DC50,HPK1 kinase [2]; numeric values,22.3 nM
Cc1cc(-c2cnc3[nH]cc(-n4ncc5c4CCC5)c3n2)cc(C)c1C1=CCN(CC2CN(c3ccc(N4CCC(=O)NC4=O)c(F)c3)C2)CC1 [compound 164],pIC50,HPK1 kinase [1],> 8.00
same,DC50,HPK1 kinase [2]; class symbols,< 10 nM
Cc1cc(-c2cnc3[nH]cc(-c4ccc(C(=O)N(C)C)cc4)c3n2)cc(C)c1C1=CCN(C2CC3(C2)CN(c2ccc(N4CCC(=O)NC4=O)c(F)c2)C3)CC1 [compound 119],pIC50,HPK1 kinase [1],> 8.00
same,DC50,HPK1 kinase [2]; class symbols,< 10 nM
Cc1cc(-c2cnc3[nH]cc(-c4cnc5ccc(C#N)cn45)c3n2)cc(C)c1C1=CCN(CC2CN(c3ccc(N4CCC(=O)NC4=O)c(F)c3)C2)CC1 [compound 166],pIC50,HPK1 kinase [1],> 8.00
same,DC50,HPK1 kinase [2]; class symbols,< 10 nM
Cc1cc(-c2cnc3[nH]cc(-c4csc(CO)c4)c3n2)cc(C)c1C1=CCN(CC2CN(c3ccc(N4CCC(=O)NC4=O)c(F)c3)C2)CC1 [compound 151],pIC50,HPK1 kinase [1],> 8.00
same,DC50,HPK1 kinase [2]; class symbols,< 10 nM
Cc1cc(-c2cnc3[nH]cc(-c4cnsc4)c3n2)cc(C)c1C1=CCN(CC2CN(c3ccc(N4CCC(=O)NC4=O)c(F)c3)C2)CC1 [compound 154],pIC50,HPK1 kinase [1],> 8.00
same,DC50,HPK1 kinase [2]; class symbols,< 10 nM
Cc1cc(-c2cnc3[nH]cc(-c4ccc(C(=O)N(C)C)cc4)c3n2)cc(C)c1C1=CCN(C2CC3(CCN(c4ccc(N5CCC(=O)NC5=O)c(F)c4)C3)C2)CC1 (stereo not shown) [compound 117],pIC50,HPK1 kinase [1],> 8.00
same,DC50,HPK1 kinase [2]; class symbols,< 10 nM
Cc1cc(-c2cnc3[nH]cc(-n4cc(C(F)F)cn4)c3n2)cc(C)c1C1=CCN(CC2CN(c3ccc(N4CCC(=O)NC4=O)c(F)c3)C2)CC1 [compound 159],pIC50,HPK1 kinase [1],> 8.00
same,DC50,HPK1 kinase [2]; class symbols,< 10 nM
Cc1cnn(-c2c[nH]c3ncc(-c4cc(C)c(C5=CCN(CC6CN(c7ccc(N8CCC(=O)NC8=O)c(F)c7)C6)CC5)c(C)c4)nc23)c1 [compound 158],pIC50,HPK1 kinase [1],> 8.00
same,DC50,HPK1 kinase [2]; class symbols,< 10 nM
Cc1cc(-c2cnc3[nH]cc(-c4ccc(C(=O)N(C)C)cc4)c3n2)cc(C)c1C1=CCN(CC2CN(c3ccc(C4CCC(=O)NC4=O)c(F)c3)C2)CC1 (stereo not shown) [compound 003],pIC50,HPK1 kinase [1],> 8.00
same,DC50,HPK1 kinase [2]; class symbols,< 10 nM
Cc1ccn2c(-c3c[nH]c4ncc(-c5cc(C)c(C6=CCN(CC7CN(c8ccc(N9CCC(=O)NC9=O)c(F)c8)C7)CC6)c(C)c5)nc34)cnc2c1 [compound 168],pIC50,HPK1 kinase [1],> 8.00
same,DC50,HPK1 kinase [2]; class symbols,< 10 nM
Cc1cc(-c2cnc3[nH]cc(-c4cncs4)c3n2)cc(C)c1C1=CCN(CC2CN(c3ccc(N4CCC(=O)NC4=O)c(F)c3)C2)CC1 [compound 153],pIC50,HPK1 kinase [1],> 8.00
same,DC50,HPK1 kinase [2]; class symbols,< 10 nM
Cc1nsc(-c2c[nH]c3ncc(-c4cc(C)c(C5=CCN(CC6CN(c7ccc(N8CCC(=O)NC8=O)c(F)c7)C6)CC5)c(C)c4)nc23)n1 [compound 171],pIC50,HPK1 kinase [1],> 8.00
same,DC50,HPK1 kinase [2]; class symbols,< 10 nM
Cc1cc(-c2cnc3[nH]cc(-c4ccc(C(=O)N(C)C)cc4)c3n2)cc(C)c1C1=CCN(CC2CN(c3cc(F)c(N4CCC(=O)NC4=O)c(F)c3)C2)CC1 [compound 141],DC50,HPK1 kinase [2]; class symbols,< 10 nM
Cc1cc(-c2cnc3[nH]cc(-c4ccc(C(=O)N(C)C)cc4)c3c2)cc(C)c1C1=CCN(CC2CN(c3ccc(N4CCC(=O)NC4=O)c(Cl)c3)C2)CC1 [compound 142],pIC50,HPK1 kinase [1],> 8.00
same,DC50,HPK1 kinase [2]; class symbols,< 10 nM
Cc1cc(-c2cnc3[nH]cc(-c4cc(Cl)sc4Cl)c3n2)cc(C)c1C1=CCN(CC2CN(c3ccc(N4CCC(=O)NC4=O)c(F)c3)C2)CC1 [compound 149],pIC50,HPK1 kinase [1],> 8.00
same,DC50,HPK1 kinase [2]; class symbols,< 10 nM
Cc1cc(-c2cnc3[nH]cc(-c4ccc(C(=O)N(C)C)cc4)c3n2)cc(C)c1C1=CCN(CC2CN(c3ccc(N4CCC(=O)NC4=O)cc3)C2)CC1 [compound 008],pIC50,HPK1 kinase [1],> 8.00
same,DC50,HPK1 kinase [2]; class symbols,< 10 nM
Cc1cc(-c2c[nH]c3ncc(-c4cc(C)c(C5=CCN(CC6CN(c7ccc(C(=O)NC8CCC(=O)NC8=O)cc7)C6)CC5)c(C)c4)nc23)ccc1C(=O)N(C)C (stereo not shown) [compound 028],pIC50,HPK1 kinase [1],> 8.00
same,DC50,HPK1 kinase [2]; class symbols,< 10 nM
Cc1cc(N2CC(CN3CC=C(c4c(C)cc(-c5cnc6[nH]cc(-c7ccc(C(=O)N(C)C)cc7F)c6n5)cc4C)CC3)C2)ccc1N1CCC(=O)NC1=O [compound 140],pIC50,HPK1 kinase [1],> 8.00
same,DC50,HPK1 kinase [2]; class symbols,< 10 nM
Cc1cc(N2CC(CN3CC=C(c4c(C)cc(-c5cnc6[nH]cc(-c7cnc8c(c7)N(C)CCO8)c6n5)cc4C)CC3)C2)ccc1N1CCC(=O)NC1=O [compound 132],pIC50,HPK1 kinase [1],> 8.00
same,DC50,HPK1 kinase [2]; class symbols,< 10 nM
CCc1nc(C)c(-c2c[nH]c3ncc(-c4cc(C)c(C5=CCN(CC6CN(c7ccc(N8CCC(=O)NC8=O)c(F)c7)C6)CC5)c(C)c4)nc23)s1 [compound 152],pIC50,HPK1 kinase [1],> 8.00
same,DC50,HPK1 kinase [2]; class symbols,< 10 nM
Cc1cc(-c2cnc3[nH]cc(-n4cc(N5CCOCC5)cn4)c3n2)cc(C)c1C1=CCN(CC2CN(c3ccc(N4CCC(=O)NC4=O)c(F)c3)C2)CC1 [compound 157],pIC50,HPK1 kinase [1],> 8.00
same,DC50,HPK1 kinase [2]; class symbols,< 10 nM
CNc1cc(-c2cnc3[nH]cc(-c4ccc(C(=O)N(C)C)cc4)c3n2)ccc1C1=CCN(CC2CN(c3ccc(N4CCC(=O)NC4=O)c(C)c3)C2)CC1 [compound 131],pIC50,HPK1 kinase [1],> 8.00
Cc1cc(N2CC(CN3CC=C(c4c(C)cc(-c5cnc6[nH]cc(-c7ccc(C(=O)N(C)C)cc7)c6n5)cc4C)CC3)C2)ccc1NC1CCC(=O)NC1=O (stereo not shown) [compound 021],pIC50,HPK1 kinase [1],> 8.00
Cc1cc(-c2cnc3[nH]cc(-c4cnc5[nH]ccc5c4)c3n2)cc(C)c1C1=CCN(C2CN(c3ccc(C(=O)NC4CCC(=O)NC4=O)cc3)C2)CC1 (stereo not shown) [compound 070],pIC50,HPK1 kinase [1],> 8.00
COc1cc(N2CC(CN3CC=C(c4c(C)cc(-c5cnc6[nH]cc(-c7ccc(C(=O)N(C)C)cc7)c6n5)cc4C)CC3)C2)ccc1C(=O)NC1CCC(=O)NC1=O (stereo not shown) [compound 059],pIC50,HPK1 kinase [1],> 8.00
Cc1cc(N2CC(CN3CC=C(c4ccc(-c5cnc6[nH]cc(-c7ccc(C(=O)N(C)C)cc7)c6n5)cc4CN(C)C)CC3)C2)ccc1N1CCC(=O)NC1=O [compound 139],pIC50,HPK1 kinase [1],> 8.00
same,DC50,HPK1 kinase [2]; class symbols,< 10 nM
